Measurements as given in patent US3961066A, “6,7-Benzomorphan derivatives” (priority 1973, dated 1976).
Read-outs that look alike come from different tables or passages of the source.

Experiments:
[1] = Analgesic activity (antagonism of the syndrome produced by intraperitoneal injection of 0.6 % aqueous acetic acid); assay type: in vivo, mice; conditions: for ED50: Mus musculus; for ED50 / analgesic activity compared with morphine: sc; for analgesic activity compared with pentazocin: s.c., result in words; for analgesic activity compared with morphine: mouse, in vivo
Experimental: Note: The test was based on the specific antagonism of the test compound to the typical syndrome produced by intraperitoneal injection of 0.6 % aqueous acetic acid. The syndrome was characterized by intermittent contractions of the abdomen, twisting and turning of the trunk and extension of the hind legs. A group of 5 mice was used for each dose level. The test compound was administered subcutaneously 20 minutes before the injection of acetic acid. […] The ED50 value was calculated according to the Litchfield-Wilcoxon's method.

[2] = Physical dependency (abstinence syndrome, body weight decrease after withdrawal following 4 weeks of s.c. administration); assay type: in vivo, male rats of Wistar strain; parameters: key to Abstinence syndrome: ++: severe decrease (about 5 % decrease); ++: moderate decrease; +: mild decrease; -: no decrease; conditions: rats
Experimental: Note: Groups of animals of male rats of Wistar strain (body weight, 150 g), each group consisting of 20 male rats, were subcutaneously given the test compound twice a day for 4 consecutive weeks. On the next day after drug withdrawal, the body weight was measured. The symbols have the following meanings: ++, severe decrease (about 5 % decrease); ++, moderate decrease; +, mild decrease; -, no decrease.

[3] = mice, s.c. 20 minutes before the injection of acetic acid, Litchfield-Wilcoxon's method, read-out: ED50

## CN1CC[C@]23c4c5ccc(O)c4O[C@H]2[C@@H](O)C=C[C@H]3[C@H]1C5 [Morphine, reference compound]
[1]
  ED50: 1.2 mg/kg

## CC1CN(CCCC(=O)c2ccc(F)cc2)C2Cc3ccc(O)cc3C1(C)C2 (stereo not drawn) [2'-hydroxy-2-[γ-(p-fluorobenzoyl)-n-propyl]-4,5-dimethyl-6,7-benzomorphan]
[1]; [3]
  ED50: 0.36 mg/kg
[1]; mice
  analgesic activity compared with pentazocin: much more potent analgesic activity than pentazocin
[1]
  analgesic activity compared with morphine: more potent analgesic activity than morphine
[2]; s.c., 40 mg/kg/day for 4 weeks, twice a day, body weight measured on the next day after drug withdrawal
  Abstinence syndrome: -
[2]; subcutaneously, everyday for 4 weeks, result in words
  physical dependency: did not produce any physical dependency

## CC1CN(CCc2ccccc2)C2Cc3ccc(O)cc3C1(C)C2 (stereo not drawn) [2'-hydroxy-2-(β-phenylethyl)-4,5-dimethyl-6,7-benzomorphan]
[1]; [3]
  ED50: 0.23 mg/kg
[1]; mice
  analgesic activity compared with pentazocin: much more potent analgesic activity than pentazocin
[1]
  analgesic activity compared with morphine: more potent analgesic activity than morphine
